We go through 1 molecule from article PMC8147177, “Bio-Insecticide of Thymus vulgaris and Ocimum basilicum Extract from Cell Suspensions and Their Inhibitory Effect against Serine, Cysteine, and Metalloproteinases of the Red Palm Weevil (Rhynchophorus ferrugineus)” (Insects, 2021).

The experiment has as its system metalloproteinase of R. ferrugineus midgut. The experiment can be described thus: Metalloproteinase specific activity assay (azocasein) in 4th instar midgut homogenate. To be noted: control 1.15. It is filed as biochemical, Rhynchophorus ferrugineus. The method, then:
The 4th midgut larvae (10 larvae) were pulled out gently, excised, washed with saline solution (0.9% NaCl) repeatedly to remove foodstuff and then homogenized in a 500 µL assay buffer. […] The homogenates were centrifuged at 5000× g for 30 min using the Sigma 3k30 cooling centrifuge. The supernatants were used for estimation of enzyme activity and protein concentration. […] The reaction was stopped with 300 µL of cold 10% trichloroacetic acid (TCA) and proceeded for 180 min at 37 °C. The reaction mixture was centrifuged at 5000× g for 20 min using the Sigma 3k30 cooling centrifuge, 10 µL of 10 N NaOH was added to the supernatant, and absorbance at 450 nm was measured using an ELISA plate reader. An assay mixture without an enzyme was used as the blank. […] Specific protease inhibitors were added to the reactions of proteolytic activity determination assays, and the inhibitors were: PMSF, a general serine proteinase inhibitor; […] The inhibition assay was carried out on a microplate assay as described above. A series of inhibitor concentrations was prepared in order to establish the maximum inhibition by each inhibitor. […] An assay mixture without inhibitors was used as control. Absorbance was measured using an ELISA plate reader at different nm according to the type of enzymes. Percent activity of the control for each inhibitor was calculated to each enzyme.

In the case of `O=C([O-])CN(CCN(CC(=O)O)CC(=O)O)CC(=O)[O-].[Na+].[Na+]` [EDTA, ethylenediaminetetraacetic acid disodium salt], the “Specific activity, Metallo-Protease” value reads like this: (inhibitor 0.1 mM) 0.89 ± 0.11 OD/mg protein min; (inhibitor 1 mM) 0.80 ± 0.11 OD/mg protein min; (inhibitor 10 mM) 0.68 ± 0.11 OD/mg protein min; (inhibitor 50 mM) 0.59 ± 0.1 OD/mg protein min; (inhibitor 100 mM) 0.42 ± 0.1 OD/mg protein min.
